Measurements as given in US11542475B2, “3D microphysiologic system” (Northwestern University, priority 2014, dated 2023).
Read-outs that look alike come from different tables or passages of the source.

Tests used:
Stage 5b mouse follicles = tested on: Stage 5b mouse follicles
Description: Cisplatin (CDDP) and cyclophosphamide (CTX) were obtained from Sigma-Aldrich (St. Louis, Mo.) and used at final concentrations of: 0.2, 1, and 5 μM. Nalbuphine and Raclopride were obtained from the NIH Clinical Collection (South San Francisco, Calif.) and used at final concentrations of: 0.2, 1, and 5 μM. Corexit EC 9500A was obtained via a Material Transfer Agreement from Nalco (Sugar Land, Tex.). CE was used at final concentrations of: 5 ppm, 10 ppm, 25 ppm, 50 ppm, 75 ppm, 100 ppm, 125 ppm, 150 ppm, 200 ppm, 250 ppm, 300 ppm, 350 ppm and 400 ppm, which correspond to 4.75 mg/L, 9.5 mg/L, 23.75 mg/L, 47.5 mg/L, 71.25 mg/L, 95 mg/L, 118.75 mg/L, 142.5 mg/L, […], 237.5 mg/L, 285 mg/L, 332.5 mg/L and 380 mg/L.
All experiments were performed using CD-1 female mice (Harlan Laboratories, Indianapolis, Ind.) that were housed in a controlled barrier facility at Northwestern University's Center of Comparative Medicine under constant temperature, humidity and light (12 h light/12 h dark). Food and water were provided ad libitum. All animal experiments were approved by the Institutional Animal Care and Use Committee and were in accordance with National Institutes of Health Guidelines. For follicle isolation, ovaries were dissected from 14-15-day-old mice and cut into 4 pieces. The tissue was incubated for 1 hour in L15 media (Invitrogen, Carlsbad, Calif., USA) containing 2% Liberase™ (Roche, Indianapolis, Ind.) and 1% DNase I (Worthington, Lakewood, N.J.). The enzymatic digestion was quenched by rinsing follicles in αMEM Glutamax (Invitrogen) containing 1% Fetal Bovine Serum (FBS, Invitrogen, Carlsbad, Calif.) and 0.5% Pen-Strep (Mediatech, Herndon, Va.). Type 5b multilayer secondary follicles (140-175 μm in diameter) were manually collected and cultured individually in wells of a 96-well plate (Pedersen and Peters, 1968; herein incorporated by reference in its entirety).
Follicles were cultured at 37° C. in a humidified atmosphere of 5% CO2 in air for up to 6 days. All chemical exposures were initiated on day 2 of culture. Half of the culture media was replaced with fresh GM every other day and spent media was stored at −20° C. for use in steroid hormone assays. Follicles were imaged at each media change using a Leica DM IRB inverted microscope equipped with 4× and 20× objectives (Leica Microsystems, Heidelberg, Germany) to assess survival, morphology and growth. Live follicles were defined as those that contained an oocyte surrounded completely by somatic cells. […] The percent of surviving follicles was calculated as the number of live follicles out of the total number of follicles plated. Antral cavity formation was assessed morphologically and characterized by the differentiation of outer layers of mural granulosa cells and inner layers of cumulus granulosa cells surrounding the oocyte as well as the presence of a fluid-filled structure.

p53 stabilization in FTE = experiment: 3D human fimbriae culture: p53 immunohistochemistry; format: cell-based; settings: 2 and 7 days treatment, n=8
Description: (§1) Tissues were micro-dissected in alpha-MEM (Gibco, Carlsbad, Calif.) with 1% penicillin-streptomycin (Invitrogen, Carlsbad, Calif.). Individual fimbriae were separated into ˜50 mm^3 pieces. A portion of the tissue was fixed in 2% paraformaldehyde for use as an uncultured control. For optimization studies, fimbriae were cultured without matrix, encapsulated in 0.5% alginate, or encapsulated in 0.5% alginate with 1 mg/ml collagen and 0.1% fibronectin, as previously described for murine cultures (King et al. J Vis Exp. 2011.; herein incorporated by reference in its entirety). For subsequent treatments, 0.5% alginate encapsulated fimbriae were randomly assigned to treatment groups, with at least five fimbriae per condition, per patient, in a 24-well plate containing alpha-MEM and 1% penicillin-streptomycin. […] Prior to fixation, fimbriae were labeled with 10 μM bromodeoxyurine (BrdU, Sigma-Aldrich) for 24 hours to denote proliferating cells. Fimbriae cultures were fixed (2% paraformaldehyde) followed by dehydration in ethanol and xylene, and embedment in paraffin.
Sections (5 μm) were cut and stained via hematoxylin and eosin for morphological analysis or immunohistochemistry was performed to localize proteins of interest as previously described (King et al. Endocr Relat Cancer. 2011. 18:627-42.; herein incorporated by reference in its entirety). Slides were rehydrated through an ethanol gradient, prior to 0.1M sodium citrate retrieval and peroxidase block. […]
Immunohistochemistry images were taken via a Nikon E600 microscope, DXM1200 digital camera and NIS Elements software (Nikon Instruments, Melville, N.Y.). […] BrdU sections were imaged and epithelial cells (CK8 positive) were quantified for proliferation via ImageJ software (NIH, Bethesda, Md.). At least three fimbriae with 200 or more FTE were quantified for each treatment. Analysis of p53 staining was similar, with at least three fimbriae per treatment, per patient analyzed. Samples with p53 expression were quantified utilizing adjacent sections stained for the secretory cell marker PAX8 in a qualitative manner as described.

[1] = tested on: human fallopian fimbriae FTE; experiment: 3D human fimbriae culture: FTE proliferation by BrdU labeling; format: cell-based; settings: insulin 5 μg/ml (ITS), H2O2 1 mM, E2 10 nM, n=6
Description: as §1
Sections (5 μm) were cut and stained via hematoxylin and eosin for morphological analysis or immunohistochemistry was performed to localize proteins of interest as previously described (King et al. Endocr Relat Cancer. 2011. 18:627-42.; herein incorporated by reference in its entirety). Slides were rehydrated through an ethanol gradient, prior to 0.1M sodium citrate retrieval and peroxidase block. Tissues probed for BrdU were exposed to 4M HCl and 0.1M NaB4O7(Fisher Scientific) to denature DNA. All immunohistochemical reagents were obtained from Vector Laboratories, Inc (Burlingame, Calif.) unless otherwise stated. Tissues were blocked in 3% bovine serum albumin (Gemini, West Sacramento, Calif.)-TBS/10% serum and incubated with a primary antibody 1:50 acetylated tubulin (Cell Signaling, Cambridge, Mass.); 1:200 BrdU (AbCam, Cambridge, Mass.); 1:100 cytokeratin 8 (CK8, Developmental Studies Hybridoma Bank, Iowa City, Iowa); 1:50 p53 (Santa Cruz, Santa Cruz, Calif.); 1:100 PAX8 (Proteintech, Chicago, Ill.); 1:100 pH2AX (Cell Signaling); or 1:75 PR (Santa Cruz)) overnight at 4°. Tissues were washed in TBS-0.1% Tween and incubated with a secondary antibody (1:200), before being probed with ABC peroxidase standard, followed by detection with 3,3′-diaminobenzidine (DAB) and counterstained with hematoxylin.
Immunohistochemistry images were taken via a Nikon E600 microscope, DXM1200 digital camera and NIS Elements software (Nikon Instruments, Melville, N.Y.). For proliferation analysis, concurrent sections were stained for CK8 and BrdU. BrdU sections were imaged and epithelial cells (CK8 positive) were quantified for proliferation via ImageJ software (NIH, Bethesda, Md.). At least three fimbriae with 200 or more FTE were quantified for each treatment. […] Samples with p53 expression were quantified utilizing adjacent sections stained for the secretory cell marker PAX8 in a qualitative manner as described.

[2] = tested on: human fallopian tube epithelium; experiment: Fallopian epithelia cilia beating quantification; format: cell-based; settings: 7 days culture; P4 added to E2
Description: Human fallopian tissue was obtained from routine hysterectomies from women in their reproductive years (ages range from 26 to 50 years old) and who had not undergone exogenous hormonal treatment for at least three months prior to surgery. Informed consent was obtained from each patient and approval granted by the ethics committee of the Northwestern University. Human fallopian tissue was kept in the DMEM/F12 medium with 10% FBS on ice and processed within 24 hours. The tissue was washed with warm PBS solution two times before being transferred into warm dissection medium (Liebowitz 15 with 0.5% P/S and 10% FBS). After cleaning connective tissue from outside of the fallopian tissue, the fallopian tube was cut open and the inner epithelia layer was mechanically dissected using forceps. […]
Fallopian epithelia layers were cultured in estradiol (E2) 1 nM, E2 1 nM+progesterone (P4) 10 nM, E2 0.1 nM+P4 50 nM or with solvent only negative control for 7 days. Cilia beating movies were acquired using an Andor Spinning Disk Confocal with 5 ms exposure time and 5 ms readout time. […] The Multiple Kymograph plugin for the NIH ImageJ software was used to quantify cilia beating frequency. In each movie, 8 clusters of cilia were picked for the cilia beating quantification.

[3] = tested on: OVGP1 expression in human fallopian epithelium; experiment: OVGP1 immunoblot of cultured fallopian epithelium lysate; format: cell-based
Description: (§2) Human fallopian tissue was obtained from routine hysterectomies from women in their reproductive years (ages range from 26 to 50 years old) and who had not undergone exogenous hormonal treatment for at least three months prior to surgery. Informed consent was obtained from each patient and approval granted by the ethics committee of the Northwestern University. Human fallopian tissue was kept in the DMEM/F12 medium with 10% FBS on ice and processed within 24 hours. The tissue was washed with warm PBS solution two times before being transferred into warm dissection medium (Liebowitz 15 with 0.5% P/S and 10% FBS). After cleaning connective tissue from outside of the fallopian tissue, the fallopian tube was cut open and the inner epithelia layer was mechanically dissected using forceps. […] Tissue was cultured on 0.4 μm pore Millicell inserts (PICM03050, EMD Millipore Co, Billerica, Mass., USA) twelve-well plates with culture medium in a 37° C. and 5% CO2 incubator. Estrogen (E2) and progesterone (P4) used in tissue culture experiments were purchased from Sigma (St. Louis, Mo.).
(§3) Cultured human fallopian epithelia layers were homogenized with a minipestle in ice-cold lysis buffer (20 mM Tris-HCl, pH 8.0, 137 mM NaCl, 10% glycerol, 1% NP-40, 2 mM EDTA). Lysate normalized for protein content was loaded into NuPAGE 4-12% gradient Bis-Tris precast SDS-PAGE gels and transferred to a nitrocellulose membrane (Life Technologies, Carlsbad, Calif., USA). Blots were probed by polyclonal anti-OVGP1 antibody (LsBio, Cambridge, Mass.) overnight in 4° C. followed by anti-rabbit secondary antibody conjugated to horseradish peroxidase (Zymed, San Francisco, Calif.). Proteins were detected by ECL primer (GE HealthCare Life Sciences, Pittsburgh, Pa.) and exposed to X-ray film (Kodak, Rochester, N.Y.). The same blot was stripped using stripping buffer (Thermo Scientific, Hanover Park, Ill.) and re-probed with monoclonal anti-α-tubulin (Sigma, St. Louis, Mo.) followed by an anti-mouse secondary antibody conjugated to horseradish peroxidase. NIH ImageJ Imaging Software was used to quantify the density of western blot bands. Conditioned medium from fallopian epithelia cultures was collected and probed via western blot analysis using a polyclonal anti-hIGF1 antibody (abcam, Cambridge, Mass.). The blot was detected by the same method described above.

[4] = tested on: IGF1 secretion by human fallopian epithelium; experiment: hIGF1 immunoblot of fallopian epithelium conditioned medium; format: cell-based
Description: as §2, §3
Fallopian epithelia layers cultured on […] inserts were pre-cultured in the alpha-MEM with 0.3% BSA, ITS and 1% P/S medium for two days. Cell culture medium was collected for the glucose ELISA assay (abcam, Cambridge, Mass.). Medium was diluted 1:500 and ELISA was performed according to the protocol provided by the kit. […]

endometrial cells = experiment: Cell survival Wst-1 assay in endometrial cells cultured in 2D; format: cell-based, human; settings: 2D culture, 72 hours
[5] = 28 days stepwise E2 and P4 treatment, P4 in the presence of E2

Row | Molecule | follicle survival (Stage 5b mouse follicles; 1 μM, day 4 of culture) [%] | follicle survival (Stage 5b mouse follicles; 1 μM, day 6 of culture) [%] | follicle survival (Stage 5b mouse follicles; 5 μM, day 4 of culture) [%] | follicle survival (Stage 5b mouse follicles; 5 μM, day 6 of culture) [%] | p53 stabilization (p53 stabilization in FTE) | FTE proliferation (percentage of total FTE cells, BrdU) ([1]; 7 days in culture) [%] | other results
1 | [NH2][Pt]([NH2])([Cl])[Cl] [CDDP, Cisplatin] | 76.31 | 58.38 | 47.83 | 12.56 | – | – | concentration at which complete release of the oocyte from the follicle was first observed (Stage 5b mouse follicles): 5000 nM
2 | O=P1(N(CCCl)CCCl)NCCCO1 (centres unmarked) [CTX, cyclophosphamide] | 57.23 | 32.43 | 36.41 | 11.49 | – | – | follicle survival (Stage 5b mouse follicles; 0.2 μM, day 6 of culture (treated on day 2)): 71.8%; follicle morphology (Stage 5b mouse follicles; increasing concentrations (0.2, 1, 5 μM)): disorganized follicles with dark granulosa cells and little evidence of antral cavity formation; concentration at which complete release of the oocyte from the follicle was first observed (Stage 5b mouse follicles; most severe phenotype): 1000 nM
3 | OO [H2O2] | – | – | – | – | no factor notably induced p53 stabilization | 2.2±0.5 | FTE proliferation (percentage of total FTE cells, BrdU) ([1]; 2 days in culture): 4.0±1.1%
4 | CC(=O)[C@H]1CC[C@H]2[C@@H]3CCC4=CC(=O)CC[C@]4(C)[C@H]3CC[C@]12C [P4, progesterone] | – | – | – | – | – | – | cilia beating frequency (CBF) [2]: decreased; OVGP1 expression in the fallopian lysate ([3]; 7 days culture, P4 added to E2): suppressed; OVGP1 expression [3, 5]: suppressed; IGF1 secretion ([4]; 7 days culture, 1 nM E2, P4 added to E2): attenuated; IGF1 secretion [4, 5]: suppressed
5 | C[C@]12CC[C@H]3[C@@H](CCC4=CC(=O)CC[C@@]43C)[C@@H]1CC[C@@H]2O [testosterone] | – | – | – | – | – | – | toxicity on endometrial cells (cell survival) (endometrial cells): no toxicity
6 | Insulin: insulin 5 μg/ml given via ITS supplement (insulin; transferrin; selenite) | – | – | – | – | no factor notably induced p53 stabilization | 4.1±0.9 | –
